Source: patent publication US20150306107A1, “SAA Derivative Compound Restores eNOS And Inhibits Oxidative Stress-Induced A Diseases In Hypoxia” (JANSFAT BIOTECHNOLOGY CO., LTD., priority 2014, published 2015)

How the values were obtained:
eNOS [1] = test: Western blotting of eNOS expression in rat carvenosus strip, acute hypoxia; format: cell-based; set-up: unit not given here
VEGF [2] = test: Western blotting of VEGF expression in isolated rat pulmonary artery ring, short-term (acute) hypoxia; format: cell-based
Protocol: (§1) In our in vitro short-term experiment, isolated rat pulmonary artery was grown under normoxia (20% O2) or hypoxia (1% O2) at 37° C. for 24 hrs as was previously done (Wu BN, et al. Int J Immunopathol Pharmacol 24:925, 2011). The heart weight and body weight ratio (HW/BW) of the rats treated with one of SPAAX-1, SPAAX-1 RX complex, Sildenafil or Sildenafil RX complex each measured on the 21st hypoxic day. All animal care and the experimental protocols of this study were approved by the Animal Care and Use Committee of the Kaohsiung Medical University. Male Wistar rats (200-250 g), provided by the National Laboratory Animal Breeding and Research Center (Taipei, Taiwan), were housed under constant temperature and controlled illumination. Food and water were available ad libitum.
(§2) Whole right lung tissues of hypoxia-treated and untreated rats were isolated and cut into small strips and placed into an extraction buffer (Tris 10 mM, pH 7.0, NaCl 140 mM, PMSF 2 mM, DTT 5 mM, NP-40 0.5%, pepstatin A 0.05 mM and leupeptin 0.2 mM) for protein extraction, and then centrifuged at 12,500 g for 30 min. To measure the expression levels of the proteins, the total proteins were extracted and Western blotting analysis was performed as described previously (Bivalacqua T J, et al., 2013, TJ PLoSONE 8: e68028. doi:10.1371/journal. pone.0068028). Briefly, the protein extract was boiled to a ratio of 4:1 with a sample buffer (Tris 100 mM, pH 6.8, glycerol 20%, SDS 4% and bromophenol blue 0.2%). Electrophoresis was performed using 10% SDS-polyacrylamide gel (2 hr, 100 V, 40 mA, […] protein per lane). Separated proteins were transferred to PVDF membranes treated with 5% fat-free milk powder to block the nonspecific IgGs (90 min, 100 V) and incubated for one hour with a specific protein antibody. The blot was then incubated with anti-mouse or anti-goat IgG linked to alkaline phosphatase (1:1000) for 1 hr. Immunoreactive bands were visualized using horseradish peroxidase-conjugated secondary antibodies and subsequent electrochemiluminescence (ECL) detection (GE Healthcare Bio-Sciences Corp., Piscataway, N.J., U.S.A.). Mouse or rabbit monoclonal antibody of eNOS (Upstate, N.Y., U.S.A.), sGCα (Sigma-Adrich, CA, U.S.A., sGCβ (Santa Cruz, Calif., U.S.A.), PDE-5A (BD Tansduction, San Jose, Calif., U.S.A.), PKG (Calbiochem, San Diego, Calif., U.S.A.) ROCKII (Upstate, N.Y., U.S.A.), RhoA (Santa Cruze, Calif., U.S.A.) and the loading control protein β-actin (Sigma-Adrich, MO, U.S.A.) were used in our Western blot analysis.
(§3) The Western blotting analysis measurements were performed as per lung tissue.

eNOS [3] = test: Western blotting of eNOS expression in isolated rat pulmonary artery ring, short-term (acute) hypoxia or normoxia; format: cell-based; conditions: for eNOS expression, Pulmonary Artery Ring: acute hypoxia, Normoxia 100, Hypoxia 65.3 ± 7.8
Protocol: as §1, §2, §3

VEGF [4] = test: Western blotting of VEGF expression in rat carvenosus strip, acute hypoxia; format: cell-based; set-up: unit not given here
ROCK II [5] = test: Western blotting of ROCK II expression in isolated rat pulmonary artery ring, short-term (acute) hypoxia or normoxia; format: cell-based; conditions: for ROCK II expression, Pulmonary Artery Ring: acute hypoxia, Normoxia 100, Hypoxia 560 ± 21
Protocol: as §1, §2, §3

eNOS [6] = test: Streptozotocin (STZ) induced eNOS down-regulation of rat carvenosa tissue; format: in vivo; conditions: STZ model; 2.5 mg/kg; Control 100, STZ 60 ± 7.3
Protocol: (§4) Electrophoresis was performed using 10% SDS-polyacrylamide gel (2 hr, 100 V, 40 mA, […] protein per lane). Separated proteins were transferred to PVDF membranes treated with 5% fat-free milk powder to block the nonspecific IgGs (90 min, 100 V) and incubated for one hour with a specific protein antibody. The blot was then incubated with anti-mouse or anti-goat IgG linked to alkaline phosphatase (1:1000) for 1 hr. Immunoreactive bands were visualized using horseradish peroxidase-conjugated secondary antibodies and subsequent electrochemiluminescence (ECL) detection (GE Healthcare Bio-Sciences Corp., Piscataway, N.J., U.S.A.). Mouse or rabbit monoclonal antibody of eNOS (Upstate, N.Y., U.S.A.), sGCα (Sigma-Adrich, CA, U.S.A., sGCβ (Santa Cruz, Calif., U.S.A.), PDE-5A (BD Tansduction, San Jose, Calif., U.S.A.), PKG (Calbiochem, San Diego, Calif., U.S.A.) ROCKII (Upstate, N.Y., U.S.A.), RhoA (Santa Cruze, Calif., U.S.A.) and the loading control protein β-actin (Sigma-Adrich, MO, U.S.A.) were used in our Western blot analysis.

ROCK II [7] = test: Cigarette smoking-induced Rho/ROCK activation of rat pulmonary artery ring; format: in vivo; conditions: Intraperitoneal (100 mg/kg) 1 h prior to smoke exposure, Non-Smoking control 100, Smoking 530 ± 34
Protocol: Intraperitoneal SAA complex (100 mg/kg in 200 μl of the solution) or 200 μl of saline (control) were given to animals through intraperitoneal injection 1 h prior to smoke exposure.
as §2

ROCK II [8] = test: Streptozotocin (STZ) induced RhoA/ROCKII activation of rat carvenosa tissue; format: in vivo; conditions: STZ model; 2.5 mg/kg; Control 100, STZ 142 ± 28
Protocol: as §4

ROCK II [9] = test: Cigarette smoking-induced Rho/ROCK activation of rat pulmonary artery ring; format: in vivo; conditions: Nebulization (2.5 mM), Non-Smoking control 100, Smoking 540 ± 28
[10] = Normoxia 100, Hypoxia 62.4 ± 5.5
[11] = normoxia for 24 hrs, 10 μm, versus non-treated controls

## CCCCCCCC/C=C\CCCCCCCC(=O)O.COc1ccccc1N1CCN(CCn2cnc3c2c(=O)n(C)c(=O)n3C)CC1 [Example 7, 7-[2-[4-(2-methoxyphenyl)piperazinyl]ethyl]-1,3-dimethylxanthine oleate complex]
eNOS [1]; [10]
  eNOS expression, Carvenosus: 122 ± 4.9
VEGF [2]; Normoxia 100, Hypoxia 175 ± 14
  VEGF expression, Pulmonary Artery Ring: 91 ± 6.5
eNOS [3]
  eNOS expression, Pulmonary Artery Ring: 180 ± 7.6
VEGF [4]; Normoxia 100, Hypoxia 170 ± 15
  VEGF expression, Carvenosus: 84 ± 8.8
ROCK II [5]
  ROCK II expression, Pulmonary Artery Ring: 190 ± 7.7

## Cn1c(=O)c2c(ncn2CCN2CCN(c3ccc([N+](=O)[O-])cc3)CC2)n(C)c1=O.O=C1O[C@H]([C@@H](O)CO)C(O)=C1O [Example 8, 7-[2-[4-(4-nitrophenyl)piperazinyl]ethyl]-1,3-dimethyl-xanthine ascorbate complex]
eNOS [1]; [10]
  eNOS expression, Carvenosus: 45 ± 4.2
VEGF [2]; Normoxia 100, Hypoxia 175 ± 14
  VEGF expression, Pulmonary Artery Ring: 122 ± 16
eNOS [3]
  eNOS expression, Pulmonary Artery Ring: 80 ± 3.2
VEGF [4]; Normoxia 100, Hypoxia 170 ± 15
  VEGF expression, Carvenosus: 116 ± 12
ROCK II [5]
  ROCK II expression, Pulmonary Artery Ring: 150 ± 14

## Cl.Cn1c(=O)c2c(ncn2CCN2CCN(c3ccccc3Cl)CC2)n(C)c1=O [Reagent 3, 7-[2-[4-(2-chlorophenyl)piperazinyl]ethyl]-1,3-dimethylxanthine HCl Complex]
eNOS [1]; [10]
  eNOS expression, Carvenosus: 102 ± 5.8
eNOS [6]
  eNOS, Carvanosus tissue: 140 ± 5.3%
ROCK II [7]
  ROCK II of pulmonary artery ring: 76 ± 5.3
VEGF [2]; Normoxia 100, Hypoxia 175 ± 14
  VEGF expression, Pulmonary Artery Ring: 108 ± 8.2
eNOS [3]
  eNOS expression, Pulmonary Artery Ring: 136 ± 4.6
VEGF [4]; Normoxia 100, Hypoxia 170 ± 15
  VEGF expression, Carvenosus: 110 ± 9.4
ROCK II [8]
  ROCK II, Carvanosus tissue: 40 ± 5.2%
ROCK II [9]
  ROCK II of pulmonary artery ring: 76 ± 6.2
ROCK II [5]
  ROCK II expression, Pulmonary Artery Ring: 255 ± 4.6

## CCCc1nn(C)c2c(=O)[nH]c(-c3cc(S(=O)(=O)N4CCN(C)CC4)ccc3OCC)nc12.O=C1OC(C(O)CO)C(O)=C1O [Reagent 1002, Sildenafil DL-ascorbate complex]
eNOS [1]; Normoxia 100, Hypoxia 62.4 ± 5.5, listed as 1002
  eNOS expression, Carvenosus: 125 ± 5.4
VEGF [2]; Normoxia 100, Hypoxia 175 ± 14, listed as 1002
  VEGF expression, Pulmonary Artery Ring: 90 ± 5.8
eNOS [3]; listed as 1002
  eNOS expression, Pulmonary Artery Ring: 130 ± 6.4
VEGF [4]; Normoxia 100, Hypoxia 170 ± 15, listed as 1002
  VEGF expression, Carvenosus: 90 ± 7.9
ROCK II [5]; listed as 1002
  ROCK II expression, Pulmonary Artery Ring: 211 ± 12.5

## CCCc1nn(C)c2c(=O)[nH]c(-c3cc(S(=O)(=O)N4CCN(C)CC4)ccc3OCC)nc12.Cl [Reagent 1003, Sildenafil HCl complex]
eNOS [1]; [10]
  eNOS expression, Carvenosus: 110 ± 5.2
ROCK II [7]
  ROCK II of pulmonary artery ring: 82 ± 7.6
VEGF [2]; Normoxia 100, Hypoxia 175 ± 14
  VEGF expression, Pulmonary Artery Ring: 94 ± 9.8
eNOS [3]
  eNOS expression, Pulmonary Artery Ring: 116 ± 7.2
VEGF [4]; Normoxia 100, Hypoxia 170 ± 15
  VEGF expression, Carvenosus: 105 ± 16
ROCK II [9]
  ROCK II of pulmonary artery ring: 62 ± 4.8

## CCCc1nn(C)c2c(=O)[nH]c(-c3cc(S(=O)(=O)N4CCN(C)CC4)ccc3OCC)nc12.O=C(O)C=CC(=O)O [Reagent 1008, Sildenafil maleate complex]
eNOS [1]; [10]
  eNOS expression, Carvenosus: 45 ± 4.2
VEGF [4]; Normoxia 100, Hypoxia 170 ± 15, listed as 1008
  VEGF expression, Carvenosus: 116 ± 12
ROCK II [5]; listed as 1008
  ROCK II expression, Pulmonary Artery Ring: 150 ± 14

## CCCc1nn(C)c2c(=O)[nH]c(-c3cc(S(=O)(=O)N4CCN(C)CC4)ccc3OCC)nc12.O=C(O)CC(O)C(=O)O [Reagent 1009, Sildenafil malate complex]
VEGF [4]; Normoxia 100, Hypoxia 170 ± 15
  VEGF expression, Carvenosus: 118 ± 18
ROCK II [5]
  ROCK II expression, Pulmonary Artery Ring: 120 ± 12

## CCCc1nn(C)c2c(=O)[nH]c(-c3cc(S(=O)(=O)N4CCN(C)CC4)ccc3OCC)nc12.O=C(O)C=CC(=O)O [Reagent 1010, Sildenafil fumarate complex]
VEGF [4]; Normoxia 100, Hypoxia 170 ± 15, listed as 1010
  VEGF expression, Carvenosus: 117 ± 17
ROCK II [5]; listed as 1010
  ROCK II expression, Pulmonary Artery Ring: 125 ± 13

## CC(O)C(=O)O.CCCc1nn(C)c2c(=O)[nH]c(-c3cc(S(=O)(=O)N4CCN(C)CC4)ccc3OCC)nc12 [Reagent 1011, Sildenafil lactate complex]
eNOS [1]; [10]
  eNOS expression, Carvenosus: 46 ± 4.7
VEGF [2]; Normoxia 100, Hypoxia 175 ± 14
  VEGF expression, Pulmonary Artery Ring: 133 ± 17
eNOS [3]
  eNOS expression, Pulmonary Artery Ring: 75 ± 13
VEGF [4]; Normoxia 100, Hypoxia 170 ± 15
  VEGF expression, Carvenosus: 118 ± 16
ROCK II [5]
  ROCK II expression, Pulmonary Artery Ring: 310 ± 21

## CC(=O)O.CCCc1nn(C)c2c(=O)[nH]c(-c3cc(S(=O)(=O)N4CCN(C)CC4)ccc3OCC)nc12 [Reagent 1012, Sildenafil acetate complex]
eNOS [3]
  eNOS expression, Pulmonary Artery Ring: 70 ± 13
ROCK II [5]
  ROCK II expression, Pulmonary Artery Ring: 270 ± 27

## CCCCCCCCC=CCCCCCCCC(=O)O.CCCc1nn(C)c2c(=O)[nH]c(-c3cc(S(=O)(=O)N4CCN(C)CC4)ccc3OCC)nc12 [Reagent 1013, Sildenafil oleate complex]
eNOS [3]
  eNOS expression, Pulmonary Artery Ring: 104 ± 18

## CCCc1nn(C)c2c(=O)[nH]c(-c3cc(S(=O)(=O)N4CCN(C)CC4)ccc3OCC)nc12.O=C(O)C(=O)O [Reagent 1015, Sildenafil oxalate complex]
eNOS [1]; [10]
  eNOS expression, Carvenosus: 65 ± 4.7
eNOS [3]
  eNOS expression, Pulmonary Artery Ring: 68 ± 15
ROCK II [5]
  ROCK II expression, Pulmonary Artery Ring: 395 ± 27

## CCCc1nn(C)c2c(=O)[nH]c(-c3cc(S(=O)(=O)N4CCN(C)CC4)ccc3OCC)nc12.O=C(O)c1ccccc1O [Reagent 1016, Sildenafil-Salicylate complex]
eNOS [1]; [10]
  eNOS expression, Carvenosus: 110 ± 4.7
VEGF [2]; Normoxia 100, Hypoxia 175 ± 14
  VEGF expression, Pulmonary Artery Ring: 90 ± 5.2
eNOS [3]
  eNOS expression, Pulmonary Artery Ring: 165 ± 16
VEGF [4]; Normoxia 100, Hypoxia 170 ± 15
  VEGF expression, Carvenosus: 90 ± 7.5
ROCK II [5]
  ROCK II expression, Pulmonary Artery Ring: 178 ± 19

## C[C@@H](N)[C@H]1CC[C@H](C(=O)Nc2ccncc2)CC1 [Reagent Y27632, Y27632, reference compound]
eNOS [3]; hypoxia for 24 hrs, versus control level in normoxia, hypoxia 60±8.3%
  eNOS in isolated hypoxic pulmonary artery: 50±4.7%
eNOS [3]; [11]
  expression of eNOS in isolated pulmonary artery ring: 114.1±12.3%
ROCK II [5]; hypoxia for 24 hrs, versus control level in normoxia, hypoxia 180±10.2%
  expression of ROCK II in isolated hypoxic pulmonary artery: 150±13.1%
ROCK II [5]; [11]
  Expression of ROCK II in isolated pulmonary artery ring: 67.5±14.8%

## Sildenafil Arginate complex [Reagent 1017]
eNOS [1]; [10]
  eNOS expression, Carvenosus: 124 ± 11
VEGF [2]; Normoxia 100, Hypoxia 175 ± 14
  VEGF expression, Pulmonary Artery Ring: 90 ± 6.4
eNOS [3]
  eNOS expression, Pulmonary Artery Ring: 180 ± 12
VEGF [4]; Normoxia 100, Hypoxia 170 ± 15
  VEGF expression, Carvenosus: 90 ± 8.2
ROCK II [5]
  ROCK II expression, Pulmonary Artery Ring: 182 ± 21
